In US10494332B2, “Protein tyrosine phosphatases or SHP2 inhibitors and uses thereof” (Indiana University Research and Technology Corporation, priority 2015, dated 2019):
Like-named read-outs stand apart in the source and are kept apart here.

Legend:
Type in all cases: biochemical
[1] = target: T1, SHP2 (Homo sapiens, UniProt Q06124); assay: SHP2 phosphatase inhibition assay (pNPP); details: for IC50: read-out: IC50 SHP2
T1 sequence (Q06124 224-528): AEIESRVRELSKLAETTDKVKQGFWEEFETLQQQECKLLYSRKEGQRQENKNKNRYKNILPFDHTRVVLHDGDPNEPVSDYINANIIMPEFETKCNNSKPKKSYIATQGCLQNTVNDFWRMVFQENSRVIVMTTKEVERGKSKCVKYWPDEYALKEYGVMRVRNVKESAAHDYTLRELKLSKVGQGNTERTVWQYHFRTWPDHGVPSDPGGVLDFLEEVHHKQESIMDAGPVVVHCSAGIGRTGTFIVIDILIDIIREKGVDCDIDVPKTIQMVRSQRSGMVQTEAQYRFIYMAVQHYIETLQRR

[2] = target: T2, LMWPTP (Homo sapiens, UniProt P24666); assay: PTP inhibition assay (pNPP)
T2 sequence (P24666 1-158): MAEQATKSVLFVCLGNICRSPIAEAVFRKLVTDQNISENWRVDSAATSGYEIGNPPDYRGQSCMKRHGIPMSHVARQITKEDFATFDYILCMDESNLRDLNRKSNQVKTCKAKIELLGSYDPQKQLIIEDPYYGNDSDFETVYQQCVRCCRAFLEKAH

[3] = target: T3, LYP (Homo sapiens, UniProt Q9Y2R2); assay: PTP inhibition assay (pNPP); details: […]; LYP
T3 sequence (Q9Y2R2 1-807): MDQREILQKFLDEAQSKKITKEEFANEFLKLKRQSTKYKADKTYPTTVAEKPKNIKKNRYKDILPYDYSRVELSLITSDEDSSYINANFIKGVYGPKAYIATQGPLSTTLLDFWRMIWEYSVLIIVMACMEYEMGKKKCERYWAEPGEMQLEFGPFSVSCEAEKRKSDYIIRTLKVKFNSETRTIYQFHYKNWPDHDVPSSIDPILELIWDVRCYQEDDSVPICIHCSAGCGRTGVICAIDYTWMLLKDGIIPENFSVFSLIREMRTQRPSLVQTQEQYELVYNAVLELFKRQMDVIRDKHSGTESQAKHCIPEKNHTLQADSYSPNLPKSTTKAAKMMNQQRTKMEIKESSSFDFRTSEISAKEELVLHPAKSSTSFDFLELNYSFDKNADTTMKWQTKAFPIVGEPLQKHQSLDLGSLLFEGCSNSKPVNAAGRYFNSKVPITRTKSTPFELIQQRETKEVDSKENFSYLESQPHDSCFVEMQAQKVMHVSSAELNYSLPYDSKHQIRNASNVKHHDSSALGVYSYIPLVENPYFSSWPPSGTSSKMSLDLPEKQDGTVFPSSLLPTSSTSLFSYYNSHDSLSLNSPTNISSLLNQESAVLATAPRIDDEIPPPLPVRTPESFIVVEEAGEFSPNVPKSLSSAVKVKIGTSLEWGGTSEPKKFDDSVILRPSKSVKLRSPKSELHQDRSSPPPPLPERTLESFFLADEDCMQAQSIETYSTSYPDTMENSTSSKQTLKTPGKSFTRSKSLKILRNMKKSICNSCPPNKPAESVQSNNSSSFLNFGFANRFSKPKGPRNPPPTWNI

[4] = target: T4, HePTP (Homo sapiens, UniProt P35236); assay: PTP inhibition assay (pNPP); details: […]; HePTP
T4 sequence (P35236 1-360): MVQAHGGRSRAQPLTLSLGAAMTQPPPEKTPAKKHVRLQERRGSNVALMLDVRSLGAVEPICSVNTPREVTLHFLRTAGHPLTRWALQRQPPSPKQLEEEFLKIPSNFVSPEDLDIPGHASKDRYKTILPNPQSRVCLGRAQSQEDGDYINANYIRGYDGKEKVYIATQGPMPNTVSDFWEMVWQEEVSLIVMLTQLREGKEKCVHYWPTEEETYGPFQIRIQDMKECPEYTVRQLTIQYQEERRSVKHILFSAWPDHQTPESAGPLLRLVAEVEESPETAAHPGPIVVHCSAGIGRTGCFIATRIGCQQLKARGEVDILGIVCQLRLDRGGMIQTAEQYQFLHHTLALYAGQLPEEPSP

[5] = Example 9: SHP2 catalytic domain 20 nM, pNPP 3 mM, pH 7.0, 25° C.

## O=C(Nc1ccc(NC(=O)C(c2ccccc2)S(=O)(=O)O)cc1)c1ccc(-c2ccc(Cl)cc2Cl)o1 (stereo not drawn) [Compound L319-04-B34]
[1]; pNPP at Km, pH 7.0, 25° C.
  IC50: 7.9 µM

## O=C(Nc1ccc(N2CCOCC2)cc1)C(c1ccccc1F)S(=O)(=O)O (stereo not drawn) [Compound L319-06-M68]
[2]; […], LMWPTP
  IC50: > 100 µM
[3]
  IC50: > 100 µM
[1]; […], SHP2
  IC50: > 100 µM
[4]
  IC50: 22 µM

## O=C(Nc1ccc(N2CCOCC2)cc1)C(c1ccccc1Cl)S(=O)(=O)O (stereo not drawn) [Compound L319-07-M68]
[2]; […], LMWPTP
  IC50: > 100 µM
[3]
  IC50: > 100 µM
[1]; […], SHP2
  IC50: > 100 µM
[4]
  IC50: 11 µM

## O=C(NNc1ccccc1)C(c1ccc([N+](=O)[O-])cc1)S(=O)(=O)O (stereo not drawn) [Compound L319-08-N58]
[2]; […], LMWPTP
  IC50: 11 µM
[3]
  IC50: 9.9 µM
[1]; […], SHP2
  IC50: 7.28 µM
[4]
  IC50: 16 µM

## Cc1ccc(C(C(=O)Nc2ccc(N3CCOCC3)cc2)S(=O)(=O)O)cc1 (stereo not drawn) [Compound L319-11-M68]
[2]; […], LMWPTP
  IC50: > 100 µM
[3]
  IC50: 7.6 µM
[1]; […], SHP2
  IC50: > 100 µM
[4]
  IC50: 3.2 µM

## O=C(Nc1ccc(N2CCOCC2)cc1)C(c1ccc(Br)cc1)S(=O)(=O)O (stereo not drawn) [Compound L319-12-M68]
[2]; […], LMWPTP
  IC50: 21 µM
[3]
  IC50: 7.43 µM
[1]; […], SHP2
  IC50: > 100 µM
[4]
  IC50: 3.9 µM

## O=C(Nc1ccc(N2CCOCC2)cc1)C(c1cccc(F)c1)S(=O)(=O)O (stereo not drawn) [Compound L319-13-M68]
[2]; […], LMWPTP
  IC50: 27 µM
[3]
  IC50: 10 µM
[1]; […], SHP2
  IC50: > 100 µM
[4]
  IC50: 4.3 µM

## O=C(Nc1ccc(OCc2ccccc2)c(Cl)c1)C(c1ccc2ccccc2c1)S(=O)(=O)O (stereo not drawn) [Compound L319-14-M50]
[2]; […], LMWPTP
  IC50: 28.8 µM
[3]
  IC50: 23 µM
[1]; […], SHP2
  IC50: 24 µM
[4]
  IC50: 25 µM

## O=C(Nc1ccc(N2CCOCC2)cc1)C(c1ccc2ccccc2c1)S(=O)(=O)O (stereo not drawn) [Compound L319-14-M68]
[2]; […], LMWPTP
  IC50: > 100 µM
[3]
  IC50: 8.3 µM
[1]; […], SHP2
  IC50: > 100 µM
[4]
  IC50: 4.5 µM

## CC(C)CCNC(=O)C(c1ccc2ccccc2c1)S(=O)(=O)O (stereo not drawn) [Compound L319-14-N03]
[2]; […], LMWPTP
  IC50: > 100 µM
[3]
  IC50: 11.6 µM
[1]; […], SHP2
  IC50: 74 µM
[4]
  IC50: 24 µM

## O=C(Nc1ccc(Br)c2ccccc12)C(c1ccc(-c2ccccc2)cc1)S(=O)(=O)O (stereo not drawn) [Compound L319-16-M47]
[2]; […], LMWPTP
  IC50: 37 µM
[3]
  IC50: 22 µM
[1]; […], SHP2
  IC50: 24 µM
[4]
  IC50: 21 µM

## O=C(Nc1nc2cc(Cl)ccc2o1)C(c1ccc(-c2ccccc2)cc1)S(=O)(=O)O (stereo not drawn) [Compound L319-16-M60]
[2]; […], LMWPTP
  IC50: 18 µM
[3]
  IC50: 15 µM
[1]; […], SHP2
  IC50: 12 µM
[4]
  IC50: 13 µM

## O=C(C(c1ccc(-c2ccccc2)cc1)S(=O)(=O)O)N1CCc2cc(Br)ccc21 (stereo not drawn) [Compound L319-16-M93]
[2]; […], LMWPTP
  IC50: 24 µM
[3]
  IC50: 16 µM
[1]; […], SHP2
  IC50: 16 µM
[4]
  IC50: 7.6 µM

## O=C(NNc1ccccc1[N+](=O)[O-])C(c1ccc(-c2ccccc2)cc1)S(=O)(=O)O (stereo not drawn) [Compound L319-16-N55]
[2]; […], LMWPTP
  IC50: 90 µM
[3]
  IC50: 35 µM
[1]; […], SHP2
  IC50: 82 µM
[4]
  IC50: 43 µM

## O=C(NNc1ccccc1)C(c1ccc(-c2ccccc2)cc1)S(=O)(=O)O (stereo not drawn) [Compound L319-16-N58]
[2]; […], LMWPTP
  IC50: 32 µM
[3]
  IC50: 20 µM
[1]; […], SHP2
  IC50: 22 µM
[4]
  IC50: 20 µM

## O=C(O)C(c1ccc(-c2ccccc2)cc1)S(=O)(=O)O (stereo not drawn) [Compound L319-16]
[2]; […], LMWPTP
  IC50: > 100 µM
[3]
  IC50: 5.19 µM
[1]; […], SHP2
  IC50: 25 µM
[4]
  IC50: 11 µM

## O=C(Nc1ccc(I)cc1)C(=O)Nc1ccc(NC(=O)C(c2ccccc2)S(=O)(=O)O)cc1 (stereo not drawn) [Compound L319-20-M24]
[1]; pNPP at Km, pH 7.0, 25° C.
  IC50: 1.5 µM

## O=C(Nc1ccc(NC(=O)C(c2ccccc2)S(=O)(=O)O)cc1)C(=O)Nc1ccc(-c2cccs2)cc1 (stereo not drawn) [Compound L319-20-M74]
[1]; pNPP at Km, pH 7.0, 25° C.
  IC50: 0.9 µM

## O=C(NC1=NN=C(c2ccc(Br)cc2)C1)C(=O)Nc1ccc(NC(=O)C(c2ccccc2)S(=O)(=O)O)cc1 (stereo not drawn) [Compound L319-20-M78]
[1]; pNPP at Km, pH 7.0, 25° C.
  IC50: 0.7 µM

## O=C(Nc1ccc(NC(=O)C(c2ccccc2)S(=O)(=O)O)cc1)C(=O)Nc1ccc(-c2ccccc2)cc1 (stereo not drawn) [Compound L319-20-N08]
[1]; pNPP at Km, pH 7.0, 25° C.
  IC50: 1.4 µM

## CC(C)c1ccc(NC(=O)C(=O)Nc2ccc(NC(=O)C(c3ccccc3)S(=O)(=O)O)cc2)cc1 (stereo not drawn) [Compound L319-20-N25]
[1]; pNPP at Km, pH 7.0, 25° C.
  IC50: 2.3 µM

## Cc1c(Br)cc(NC(=O)C(=O)Nc2cccc(NC(=O)C(c3ccccc3)S(=O)(=O)O)c2)cc1Br (stereo not drawn) [Compound L319-22-M34]
[1]; pNPP at Km, pH 7.0, 25° C.
  IC50: 5.7 µM

## O=C(Nc1cccc(NC(=O)C(c2ccccc2)S(=O)(=O)O)c1)C(=O)Nc1ccc(OCc2ccccc2)c(Cl)c1 (stereo not drawn) [Compound L319-22-M50]
[1]; pNPP at Km, pH 7.0, 25° C.
  IC50: 7.5 µM

## O=C(Nc1cccc(Cc2ccccc2)c1)C(=O)Nc1cccc(NC(=O)C(c2ccccc2)S(=O)(=O)O)c1 (stereo not drawn) [Compound L319-22-M51]
[1]; pNPP at Km, pH 7.0, 25° C.
  IC50: 10 µM

## O=C(NCc1ccc(NC(=O)C(c2ccccc2)S(=O)(=O)O)cc1)C(=O)Nc1ccc(-c2cccs2)cc1 (stereo not drawn) [Compound L319-23-M74]
[1]; pNPP at Km, pH 7.0, 25° C.
  IC50: 3.5 µM

## O=C(Nc1ccc(CNC(=O)C(c2ccccc2)S(=O)(=O)O)cc1)C(=O)Nc1ccc(-c2cccs2)cc1 (stereo not drawn) [Compound L319-24-M74]
[1]; pNPP at Km, pH 7.0, 25° C.
  IC50: 1.34 µM

## O=C(Nc1ccc(CNC(=O)C(c2ccccc2)S(=O)(=O)O)cc1)C(=O)Nc1ccccc1-c1nc2ccccc2[nH]1 (stereo not drawn) [Compound L319-24-M77]
[1]; pNPP at Km, pH 7.0, 25° C.
  IC50: 1.1 µM

## O=C(Nc1nc2ccccc2s1)C(Br)(c1ccccc1)S(=O)(=O)O (stereo not drawn) [Compound L319-Br1-N15]
[1]; […], SHP2
  IC50: 13.2 µM
[4]
  IC50: 0.2 µM

## O=C(N1CCC(c2ccc(Cl)c(Cl)c2)CC1)C(Br)(c1ccccc1)S(=O)(=O)O (stereo not drawn) [Compound L319-Br1-N47]
[1]; […], SHP2
  IC50: 22.8 µM
[4]
  IC50: 26 µM

## COc1ccc(CNC(=O)C(Br)(c2ccccc2)S(=O)(=O)O)c(OC)c1 (stereo not drawn) [Compound L319-Br1-N76]
[1]; […], SHP2
  IC50: 9.9 µM
[4]
  IC50: 21.7 µM

## O=C(CP(=O)(O)O)Nc1nc2ccccc2s1 [Compound L338N15]
[2]; pNPP at Km, pH 7.0, 25° C.
  IC50: 30 µM

## O=C(O)C(=O)Nc1ccc(NC(=O)C(c2ccccc2)S(=O)(=O)O)cc1 (stereo not drawn) [Lib-1, 2-oxo-2-((4-(2-phenyl-2-sulfoacetamido)phenyl)amino)acetic acid]
[1]; [5]
  IC50: > 50 µM

## O=C(O)C(=O)Nc1cccc(NC(=O)C(c2ccccc2)S(=O)(=O)O)c1 (stereo not drawn) [Lib-2, 2-oxo-2-((3-(2-phenyl-2-sulfoacetamido)phenyl)amino)acetic acid]
[1]; [5]
  IC50: > 50 µM

## O=C(O)C(=O)NCc1ccc(NC(=O)C(c2ccccc2)S(=O)(=O)O)cc1 (stereo not drawn) [Lib-3, 2-oxo-2-((4-(2-phenyl-2-sulfoacetamido)benzyl)amino)acetic acid]
[1]; [5]
  IC50: > 50 µM

## O=C(O)C(=O)Nc1ccc(CNC(=O)C(c2ccccc2)S(=O)(=O)O)cc1 (stereo not drawn) [Lib-4, 2-oxo-2-((4-((2-phenyl-2-sulfoacetamido)methyl)phenyl)amino)acetic acid]
[1]; [5]
  IC50: > 50 µM

## CC1(C)S[C@@H]2[C@H](NC(=O)C(c3ccccc3)S(=O)(=O)O)C(=O)N2[C@H]1C(=O)O (stereo partly drawn) [sulbenicillin, reference compound]
[1]; 200 μM compound concentration
  Inhibition of SHP2 at 200 μM: no activity
